Several values for one entry are separate records, joined by “and”; a condition that tells them apart may be missing. Equal values may be shown once.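 These data come from cells grown in 96-well plates and exposed to compound for 48 hours at five concentrations. At the GI50, growth is halved. At the TGI there is no net growth.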
How the values were obtained:
Experiment in all cases: NCI tumour cell line growth inhibition, 48 h
EKVX NSCLC = system: EKVX NSCLC
M14 melanoma = system: M14 melanoma
SF-268 CNS = system: SF-268 CNS
BT-549 breast = system: BT-549 breast
U251 CNS = system: U251 CNS
OVCAR-5 ovarian = system: OVCAR-5 ovarian
SK-MEL-5 melanoma = system: SK-MEL-5 melanoma
T-47D breast = system: T-47D breast
NCI-H226 lung = system: NCI-H226 lung
K-562 leukemia = system: K-562 leukemia
SK-MEL-2 melanoma = system: SK-MEL-2 melanoma
MDA-MB-231 breast = system: MDA-MB-231 breast
SN12C renal = system: SN12C renal

SMILES | TGI (EKVX NSCLC) [µM] | TGI (M14 melanoma) [µM] | TGI (SF-268 CNS) [µM] | TGI (BT-549 breast) [µM] | TGI (U251 CNS) [µM] | TGI (OVCAR-5 ovarian) [µM] | TGI (SK-MEL-5 melanoma) [µM] | TGI (T-47D breast) [µM] | TGI (NCI-H226 lung) [µM] | TGI (K-562 leukemia) [µM] | TGI (SK-MEL-2 melanoma) [µM] | TGI (MDA-MB-231 breast) | TGI (SN12C renal) [µM] | GI50 (EKVX NSCLC) | GI50 (SN12C renal) | GI50 (SF-268 CNS) [µM] | GI50 (OVCAR-5 ovarian) [µM] | GI50 (T-47D breast) [µM] | GI50 (SK-MEL-2 melanoma) | GI50 (MDA-MB-231 breast)
CC1(C)OCC([C@H]2O[C@@H](CC(=S)NCCCCCCCCCCCCNC(=S)C[C@H]3O[C@@H](C4COC(C)(C)O4)[C@H]4OC(C)(C)O[C@H]43)[C@H]3OC(C)(C)O[C@H]32)O1 (stereo partly specified) | > 100 | > 100 | > 100 | > 100 | > 100 | > 100 | 92.4 | > 100 | > 100 | > 100 | > 100 | > 100 µM |  |  |  |  |  |  |  | 
Nc1ccc2c(c1)nc1n2C(c2c(F)cccc2F)SC1 (stereo unspecified) | > 100 | > 100 | > 100 | > 100 | > 100 | > 100 | > 100 | > 100 |  | > 100 | > 100 | > 100 µM | > 100 |  |  |  |  |  |  | 
COc1ccc(/C=N/n2c(C)n[nH]c2=O)c(OC)c1 | > 100 | > 100 | > 100 | > 100 | > 100 | > 100 |  | > 100 | > 100 | > 100 | > 100 | > 100 µM | > 100 |  |  |  |  |  |  | 
COc1c(=O)cc2cc[nH]c3ccn(C)c1c23 | > 100 | > 100 | > 100 | > 100 | > 100 | > 100 |  | > 100 | > 100 | > 100 | > 100 | > 100 µM | > 100 |  |  |  |  |  |  | 
COc1ccc(/C(Br)=C2\OC(=O)c3ccccc32)cc1 | > 10 | > 10 | > 10 |  | > 10 | > 10 | > 10 | > 10 | > 10 | > 10 | > 10 | > 10 µM | > 10 |  |  |  |  |  |  | 
CCOC(=O)C1(F)S(=O)(=O)OCCOS1(=O)=O | > 100 | > 100 | > 100 | > 100 | > 100 | > 100 | > 100 | > 100 | > 100 |  | > 100 |  | > 100 |  |  |  |  |  |  | 
CC(C)(C)C1=CC(C)(n2[nH]c(=O)n(-c3ccccc3)c2=O)C=C(C(C)(C)C)C1=O |  |  | > 100 | > 100 | > 100 |  | > 100 | > 100 | > 100 | > 100 | > 100 | > 100 µM | > 100 |  |  |  |  |  |  | 
COc1ccc(OC)c(CNc2ccc(C(=O)O)cc2)c1 | > 100 | > 100 | > 100 | > 100 | > 100 | > 100 | > 100 |  | > 100 | > 100 | > 100 | > 100 µM |  |  |  |  |  |  |  | 
NC1CC(=O)c2c1sc(Cl)c2Cl (stereo unspecified) | > 100 | > 100 | > 100 | > 100 | > 100 | > 100 | > 100 | > 100 |  | > 100 | > 100 | > 100 µM | > 100 |  |  |  |  |  |  | 
CCOC(=O)c1nc2cc(C(F)(F)F)ccc2nc1Nc1ccc(OC)cc1 | > 100 | > 100 | > 100 | > 100 |  | > 100 | > 100 | > 100 | > 100 |  | > 100 | > 100 µM | > 100 |  |  |  |  |  |  | 
O=[N+]([O-])c1ccc(-c2nc3ccc(Cl)cc3[nH]2)cc1 | > 100 | > 100 | > 100 | > 100 |  |  | > 100 | > 100 | > 100 |  |  | > 100 µM | > 100 |  |  |  |  |  |  | 
NNC(=O)c1c(-c2cccnc2)cnc2ccccc12 | > 100 | > 100 | > 100 | > 100 | > 100 | > 100 | > 100 |  | > 100 | > 100 | > 100 |  | > 100 |  |  |  |  |  |  | 
N#Cc1nc(-c2ccco2)oc1N | > 10 | > 10 | > 10 | > 10 |  | > 10 | > 10 | > 10 | > 10 | > 10 |  | > 10 µM |  |  |  |  |  |  |  | 
COc1ccc(OC)c(N(CN2C(=O)CCC2C(=O)O)C(C)=O)c1 (stereo unspecified) | > 100 | > 100 | > 100 |  | > 100 | > 100 | > 100 | > 100 | > 100 | > 100 | > 100 | > 100 µM | > 100 |  |  |  |  |  |  | 
O=[N+]([O-])c1ccc(OC2CC3C4C=CC3C2C4)c([N+](=O)[O-])c1 (stereo unspecified) | > 100 | > 100 | > 100 |  | > 100 | > 100 | > 100 | > 100 | > 100 | > 100 | > 100 | 74 µM and > 31.6 µM | > 100 | 56.5 µM and 22 µM | 86.4 µM and > 31.6 µM | > 100 | > 100 | > 100 | 90.4 µM and > 31.6 µM | 11.3 µM and > 31.6 µM
COC(=O)C(CCSC)NC(=O)CNC(=O)CSc1nnc(COc2ccc(Cl)cc2)n1-c1ccccc1 (stereo unspecified) |  | 33.6 | 32.7 | 30.6 | 31 | 34.7 | 31.4 | 54.7 | 36.9 | > 100 | 28.7 | 29.4 µM | 32.4 |  |  |  |  |  |  | 
CC(=O)C1=CN=C2C(=O)N(c3ccccc3)N(C)C12C (stereo unspecified) | > 100 | > 100 |  | > 100 | > 100 | > 100 | > 100 |  | > 100 | > 100 | > 100 | > 100 µM | > 100 |  |  |  |  |  |  | 
O=[N+]([O-])c1cccc2nc3ccccc3c(NCCCNc3c4ccccc4nc4cccc([N+](=O)[O-])c34)c12 | 0.0975 | 0.0744 | 0.0387 | 0.441 | 0.181 |  | 0.0221 | 0.407 | 11.7 |  | 0.13 | 0.0311 µM | 0.0976 |  |  |  |  |  |  | 
CCCCCCCC1(N=[N+]=[N-])C(=O)Nc2ccccc2C1=O (stereo unspecified) |  | 33.2 | 33.3 | 30.4 | 28.8 | 34 | 28.4 | 35 |  | 61.3 | 32.7 | 41.3 µM | 34.4 |  |  |  |  |  |  | 

— PubChem BioAssay (NCI)
